# Entries after “also recorded” stand apart in the source; their conditions may differ.
# Assays:
# [1] = system: Mouse cultured neurons overexpressing Rhes; assay: accumulation of phosphorylated tau in cultured neurons overexpressing Rhes; assay type: cell-based; conditions: increasing concentrations, assayed between 25 to 250 nM
# Excerpt: FIG. 1. Mouse cultured neurons overexpressing Rhes display an aberrant accumulation of phosphorylated tau. […] The two lines represent results for separate culture replications.
# Mouse cultured neurons overexpressing Rhes display an aberrant accumulation of phosphorylated tau.
# rTg4510 mouse [2] = assay: tau pathology in rTg4510 mice (MC1 immunoreactivity, coronal brain area, Iba1 microglia); assay type: in vivo
# Excerpt: These mice develop tau tangles in the cerebral cortex by 4 months of age and in the hippocampus by 5.5 months. By 5.5 months, the mice also lose about 60% of their hippocampal CA1 neurons. Spatial memory deficits become apparent by 2.5 to 4 months of age; however electrophysiological properties of cortical neurons are detected before the accumulation of tau pathology. […] MC1 immunoreactivity, corresponding to neurofibrillary tangles throughout hippocampus, amygdala, entorhinal cortex and cerebrocortex, was first detected at ˜16 weeks and progressed by 20 weeks to a mean of 92.99±13.626 MC1^+ cells/mm^2 in the cerebral cortex, and 67.57±13.113 cells/mm^2 in the hippocampus.
# Lonafarnib treatment was initiated when the animals were ten weeks old. The drug was resuspended in 20% HBCD and gavage fed, five days on and five days off at 80 mg/Kg/day. The drug was remarkably effective in reducing MC1 immunoreactivity.
# rTg4510 mouse [3] = assay: nest building / nest shredding behaviour in rTg4510 mice; assay type: in vivo; conditions: prolonged oral 80 mg/Kg/day
# Excerpt: FIG. 2. FIG. 2 is a boxplot depicting qualitative scores for mice in shredding nest material for control mice and in the tau mouse model rTg4510 expressing human mutant tau P301L, with efficient shredding scored at 3.5 or higher. Control litter-mates where able to shred their nest material efficiently while rTg4510 mice lost their ability in an age-related matter (score less than 1).
# As transgenic mice age, they display progressive worsening that begins with impaired marble burial and nest shredding and by 30 weeks progresses to hyperexcitability, restlessness in response to human approach and obsessive circling. […] Nest building was assessed at 20 weeks. […] At five weeks, littermate controls and transgenic mice produced nests with similar scores.
# NIH3T3 mouse fibroblasts = assay: macroautophagy flux with tandem reporter mCherry-GFP-LC3B; assay type: cell-based
# [4] = system: lysosomal protein degradation; assay: proteolysis of long-half-life proteins after 3H-leucine pulse; assay type: cell-based; conditions: 48 h pulse with 3H-leucine; NH4Cl and leupeptin present
# Experimental: To assess this possibility, proteolysis of long-half-life proteins was evaluated after a long pulse (48 h) with ^3H-leucine.
# [5] = cited from earlier work
compound,measurement,setting,value
NC(=O)N1CCC(CC(=O)N2CCC([C@H]3c4ncc(Br)cc4CCc4cc(Cl)cc(Br)c43)CC2)CC1 [Lonafarnib],accumulation of phosphorylated tau,[1],reduced
same,MC1+ cells/mm^2 in hippocampus,"rTg4510 mouse [2]; 80 mg/Kg/day gavage, five days on and five days off from ten weeks, evaluated at 20 weeks, p=6.4×10^−3 vs vehicle",13.38±2.615 MC1+ cells/mm^2
same,MC1+ cells/mm^2 in cortex,"rTg4510 mouse [2]; 80 mg/Kg/day gavage, five days on and five days off from ten weeks, evaluated at 20 weeks, p=7.2×10^−3 vs vehicle",44.27±4.064 MC1+ cells/mm^2
same,hippocampal microgliosis (Iba1),rTg4510 mouse [2]; 20-week old transgenic mice vs age matched untreated transgenic mice,significantly reduced
same,coronal brain area,"rTg4510 mouse [2]; chronic treatment, 20 weeks, vs vehicle and untreated age-matched transgenic mice",significantly larger
same,effect as acute intervention on tau pathology,"rTg4510 mouse [2]; gavage daily for 2 weeks, 80 mg/Kg/day, 20 week-old rTg4510 mice, after tau pathology was fulminant",ineffective
same,nest shredding / nest building,"rTg4510 mouse [3]; absence of Doxycicline (L80), chronic intermittent from ten weeks, assessed at 20 weeks, 80 mg/kg/day",prevented the nest shredding deficit; also recorded: rescued nest building
same,nest shredding,rTg4510 mouse [3]; presence of Doxycicline (L80D),prevented the nest shredding deficit
same,number of autophagosomes,NIH3T3 mouse fibroblasts; at lower concentrations,remained unchanged
same,macroautophagy flux,"NIH3T3 mouse fibroblasts; basal macroautophagy, NIH3T3 mCherry-GFP-LC3B",dose-dependent increase
same,macroautophagy flux in induced cells,NIH3T3 mouse fibroblasts; macroautophagy induced by paraquat or thapsigargin,did not further increase macroautophagy flux
same,proteolysis effect in the presence of NH4Cl and leupeptin,[4],abolished
same,efficacy and tolerability,[5]; dose of 100-150 mg/m2 body surface area,effective and well tolerated
same,side effects in humans,[5]; humans,few side effects in humans
